Test results as given in US6884799B2, “Non-cross-linking pyrrolo[2,1-c][1,4]benzodiazepines and process thereof” (Council of Scientific and Industrial Research, priority 2003, dated 2005).

Assays:
Assay type in all cases: cell-based
[1] = system: sixty human tumour cells derived from nine cancer types; experiment: cells; conditions: for GI50 / CC50: Homo sapiens, 48 h; for GI50: read-out: Log10 GI50 mean graph midpoint (MG_MID) (converted); for CC50: read-out: Log10 LC50 mean graph midpoint (MG_MID) (converted); for Log10 TGI mean graph midpoint (MG_MID): total cell growth inhibition (0% growth), 48 h continuous drug exposure, SRB
Procedure: (§1) Biological Activity. In vitro biological activity studies were carried out at National Cancer Institute (USA).
(§2) Cytotoxicity. Compounds Va and Vc were evaluated in vitro against sixty human tumour cells derived from nine cancer types (leukemia, non-small-cell lung, colon, CNS, melanoma, ovarian, prostate, and breast cancer). For each compound, dose response curves for each cell line were measured at a minimum of five concentrations at 10 fold dilutions. A protocol of 48 h continuous drug exposure was used, and a sulforhodamine B (SRB) protein assay was used to estimate cell viability or growth. The concentration causing 50% cell growth inhibition (GI50), total cell growth inhibition (TGI 0% growth) and 50% cell death (LC50, −50% growth) compared with the control was calculated.

[2] = system: leukemia cancer cell lines; experiment: NCI in vitro cytotoxicity, SRB assay, leukemia panel; conditions: Homo sapiens, read-out: Log LC50 (concentration in mol/L causing 50% lethality) (converted)
Procedure: as §1, §2
(§3) Each cancer type represents the average of six to eight different cancer cell lines.

[3] = system: non-small-cell lung cancer cell lines; experiment: NCI in vitro cytotoxicity, SRB assay, non-small-cell lung panel; conditions: Homo sapiens, read-out: Log LC50 (concentration in mol/L causing 50% lethality) (converted)
Procedure: as §1, §2, §3

colon cancer cell lines = experiment: NCI in vitro cytotoxicity, SRB assay, colon panel; conditions: Homo sapiens, read-out: Log LC50 (concentration in mol/L causing 50% lethality) (converted)
Procedure: as §1, §2, §3

CNS cancer cell lines = experiment: NCI in vitro cytotoxicity, SRB assay, CNS panel; conditions: Homo sapiens, read-out: Log LC50 (concentration in mol/L causing 50% lethality) (converted)
Procedure: as §1, §2, §3

[4] = system: melanoma cancer cell lines; experiment: NCI in vitro cytotoxicity, SRB assay, melanoma panel; conditions: Homo sapiens, read-out: Log LC50 (concentration in mol/L causing 50% lethality) (converted)
Procedure: as §1, §2, §3

[5] = system: ovarian cancer cell lines; experiment: NCI in vitro cytotoxicity, SRB assay, ovarian panel; conditions: Homo sapiens, read-out: Log LC50 (concentration in mol/L causing 50% lethality) (converted)
Procedure: as §1, §2, §3

renal cancer cell lines = experiment: NCI in vitro cytotoxicity, SRB assay, renal panel; conditions: Homo sapiens, read-out: Log LC50 (concentration in mol/L causing 50% lethality) (converted)
Procedure: as §1, §2, §3

[6] = system: prostate cancer cell lines; experiment: NCI in vitro cytotoxicity, SRB assay, prostate panel; conditions: Homo sapiens, read-out: Log LC50 (concentration in mol/L causing 50% lethality) (converted)
Procedure: as §1, §2, §3

Breast cancer cell lines = experiment: NCI in vitro cytotoxicity, SRB assay, breast panel; conditions: Homo sapiens, read-out: Log LC50 (concentration in mol/L causing 50% lethality) (converted)
Procedure: as §1, §2, §3

SMILES	cytotoxic / anticancer activity in words [1]	GI50 [1] [µM]	CC50 [1] [µM]	Log10 TGI mean graph midpoint (MG_MID) [1]	CC50 [2] [µM]	CC50 [3] [µM]	CC50 (colon cancer cell lines) [µM]	CC50 (CNS cancer cell lines) [µM]	CC50 [4] [µM]	CC50 [5] [µM]	CC50 (renal cancer cell lines) [µM]	CC50 [6] [µM]	CC50 (Breast cancer cell lines) [µM]
COc1cc2c(cc1OCCCOc1cc3c(cc1OC)C(=O)N1CCC[C@H]1CN3)N=C[C@@H]1CCCN1C2=O [Compound Va, 7-Methoxy-8-{3-[7-methoxy-(11aS)-1,2,3,10,11,11a-hexahydro-5H-pyrrolo[2,1-c][1,4]benzodiazepine-5-one-8-yloxy]propoxy}-(11aS)-1,2,3,11a-tetrahydro-5H-pyrrolo[2,1-c][1,4]benzodiazepine-5-one]	slightly higher activity	0.158	33.1	−5.73	83.2	38.9	25.7	32.4	3.55	70.8	63.1	83.2	43.7
COc1cc2c(cc1OCCCCCOc1cc3c(cc1OC)C(=O)N1CCC[C@H]1CN3)N=C[C@@H]1CCCN1C2=O [Compound Vc, 7-Methoxy-8-{5-[7-methoxy-(11aS)-1,2,3,10,11,11a-hexahydro-5H-pyrrolo[2,1-c][1,4]benzodiazepine-5-one-8-yloxy]pentyloxy}-(11aS)-1,2,3,11a-tetrahydro-5H-pyrrolo[2,1-c][1,4]benzodiazepine-5-one]	interesting profile of activity and selectivity for various cell lines	5.13	70.8	−4.55	34.7	72.4	91.2	81.3	38	97.7	95.5	≥ 100	89.1
